From patent US20110009263A1, “SELECTED SALTS OF 3-(5,6-DIHYDRO-1,4,2-DIOXAZIN-3-YL)-N-[(4,6-DIMETHOXYPYRIMIDIN-2-YL)CARBAMOYL]PYRIDINE-2-SULFONAMIDE, METHOD FOR THE PRODUCTION THEREOF, AND USE THEREOF AS HERBICIDES AND PLANT GROWTH REGULATORS” (priority 2008, published 2011) come the findings set out here.

Holding throughout (format): in vivo
One test has as its system Stellaria media. The settings on record: pre-emergence, application rate of 0.08 kg or less of active substance per hectare, 3 to 4 weeks. The source says:
(§1) Seeds or rhizome pieces of mono- and dicotyledonous weeds were placed in sandy loam in cardboard pots and covered with soil. The compounds according to the invention, formulated in the form of wettable powders or emulsion concentrates, were then applied to the surface of the covering soil in the form of aqueous suspensions or emulsions at an application rate of 100 to 800 l of water/ha (converted), at various dosages.
(§2) After the treatment, the pots were placed in a greenhouse and kept under good growth conditions for the weeds. The visual scoring of the damage to the plants or the emergence damage was carried out after the emergence of the test plants after a test period of 3 to 4 weeks, by comparison with untreated controls. As shown by the results, the compounds according to the invention have good herbicidal pre-emergence activity against a broad spectrum of weed grasses and broad-leaved weeds.

A further test relates to Papaver rhoeas. The settings on record: pre-emergence, application rate of 0.08 kg or less of active substance per hectare, 3 to 4 weeks.
Excerpt: as §1, §2

The next test relates to Viola tricolor. The note with it: pre-emergence, application rate of 0.08 kg or less of active substance per hectare, 3 to 4 weeks.
Excerpt: as §1, §2

The test system of another test is Matricaria inodora. The settings on record: pre-emergence, application rate of 0.08 kg or less of active substance per hectare, 3 to 4 weeks.
Excerpt: as §1, §2

A further test relates to Eleusine indica. The note with it: for ELEIN (post-emergence herbicidal action score): 2-4 leaf stage, 5 g of a.i./ha, scored after four weeks, 0=no damage, 100=complete control. Here is the method: (§3) Seeds or rhizome pieces of monocotyledonous and dicotyledonous weeds were placed in sandy loam in plastic pots (Jiffy pots), covered with soil and cultivated in a greenhouse under good and defined growth conditions, i.e. at a day/night rhythm of 22° C./14° C. At the 2-4 leaf stage, the plants were then treated with an aqueous test solution of various compounds according to the invention at the stated dosage. After four weeks, the tests were scored according to the scheme below:
(§4) 0=no damage; 100=complete control
(§5) The control used was the Na^+ salt of 3-(5,6-dihydro-1,4,2-dioxazin-3-yl)-N-[(4,6-dimethoxypyrimidin-2-yl)carbamoyl]pyridine-2-sulfonamide which is already known from U.S. Pat. No. 5,476,936.

The subject of the next test is Ambrosia elatior. The settings on record: for AMBEL (post-emergence herbicidal action score): 2-4 leaf stage, 5 g of a.i./ha, scored after four weeks, 0=no damage, 100=complete control. The procedure: as §3, §4, §5

Consider “2-(Acetyloxy)-N,N,N-trimethylethanaminium {[3-(5,6-dihydro-1,4,2-dioxazin-3-yl)pyridin-2-yl]sulfonyl}[(4,6-dimethoxypyrimidin-2-yl)carbamoyl]azanide [Compound I-40]”, for which the “herbicidal activity against Stellaria media” value with Stellaria media is recorded as “very good herbicidal activity”. For the same compound, the “herbicidal activity against Papaver rhoeas” value with Papaver rhoeas is on record as “very good herbicidal activity”. In addition, in the test on Viola tricolor, the “herbicidal activity against Viola tricolor” value is on record as “very good herbicidal activity”. In addition, the “herbicidal activity against Matricaria inodora” value in the test with Matricaria inodora was “very good herbicidal activity”. The “ELEIN (post-emergence herbicidal action score)” value (from here on “ELEIN”) in the test with Eleusine indica was determined as 93. The “AMBEL (post-emergence herbicidal action score)” value (“AMBEL” below) in the test with Ambrosia elatior stood at 80.
For the compound `COc1cc(OC)nc(NC(=O)[N-]S(=O)(=O)c2ncccc2C2=NOCCO2)n1.[Li+]` [Compound I-1, Lithium {[3-(5,6-dihydro-1,4,2-dioxazin-3-yl)pyridin-2-yl]sulfonyl}[(4,6-dimethoxypyrimidin-2-yl)carbamoyl]azanide], the “herbicidal activity against Stellaria media” value in the test with Stellaria media was “very good herbicidal activity”. Also, the “herbicidal activity against Papaver rhoeas” value in the test on Papaver rhoeas was “very good herbicidal activity”. Besides, the “herbicidal activity against Viola tricolor” value in the test with Viola tricolor is given as “very good herbicidal activity”. Besides, the “herbicidal activity against Matricaria inodora” value in the test with Matricaria inodora is “very good herbicidal activity”. The “ELEIN” value in the test with Eleusine indica turned out to be 85. For the same compound, the “AMBEL” value with Ambrosia elatior is listed as 80.
With “2-Chloro-N,N,N-trimethylethanaminium {[3-(5,6-dihydro-1,4,2-dioxazin-3-yl)pyridin-2-yl]sulfonyl}[(4,6-dimethoxypyrimidin-2-yl)carbamoyl]azanide [Compound I-39]”, the “herbicidal activity against Stellaria media” value with Stellaria media was “very good herbicidal activity”. For the same compound, the “herbicidal activity against Papaver rhoeas” value in the test on Papaver rhoeas is “very good herbicidal activity”. Besides, in the test with Viola tricolor, the “herbicidal activity against Viola tricolor” value was “very good herbicidal activity”. Further, the “herbicidal activity against Matricaria inodora” value with Matricaria inodora is reported as “very good herbicidal activity”. The “ELEIN” value in the test with Eleusine indica was determined as 93. For the same compound, the “AMBEL” value in the test on Ambrosia elatior came to 80.
As to `CC(C)N.COc1cc(OC)nc(NC(=O)NS(=O)(=O)c2ncccc2C2=NOCCO2)n1` [Compound I-14, Propan-2-aminium {[3-(5,6-dihydro-1,4,2-dioxazin-3-yl)pyridin-2-yl]sulfonyl}[(4,6-dimethoxypyrimidin-2-yl)carbamoyl]azanide], in the test on Stellaria media, the “herbicidal activity against Stellaria media” value is reported as “very good herbicidal activity”. Also, the “herbicidal activity against Papaver rhoeas” value in the test on Papaver rhoeas is listed as “very good herbicidal activity”. Moreover, the “herbicidal activity against Viola tricolor” value in the test on Viola tricolor is “very good herbicidal activity”. Besides, the “herbicidal activity against Matricaria inodora” value in the test on Matricaria inodora was “very good herbicidal activity”. Besides, the “ELEIN” value with Eleusine indica is reported as 80. Also, the “AMBEL” value in the test with Ambrosia elatior stood at 90.
Consider `COc1cc(OC)nc(NC(=O)NS(=O)(=O)c2ncccc2C2=NOCCO2)n1.N` [Compound I-5, Ammonium {[3-(5,6-dihydro-1,4,2-dioxazin-3-yl)pyridin-2-yl]sulfonyl}[(4,6-dimethoxypyrimidin-2-yl)carbamoyl]azanide], for which the “herbicidal activity against Stellaria media” value in the test with Stellaria media is on record as “very good herbicidal activity”. Further, the “herbicidal activity against Papaver rhoeas” value in the test on Papaver rhoeas is listed as “very good herbicidal activity”. Also, in the test with Viola tricolor, the “herbicidal activity against Viola tricolor” value was “very good herbicidal activity”. Also, the “herbicidal activity against Matricaria inodora” value in the test with Matricaria inodora is on record as “very good herbicidal activity”. In the test on Eleusine indica, the “ELEIN” value came to 80. Besides, the “AMBEL” value in the test with Ambrosia elatior was 75. Further, in the test on Ambrosia elatior (post-emergence), the “control of Ambrosia elatior” value is reported as ≥ 75%.
Take `COc1cc(OC)nc(NC(=O)[N-]S(=O)(=O)c2ncccc2C2=NOCCO2)n1.[K+]` [Compound I-2, Potassium {[3-(5,6-dihydro-1,4,2-dioxazin-3-yl)pyridin-2-yl]sulfonyl}[(4,6-dimethoxypyrimidin-2-yl)carbamoyl]azanide]: the “herbicidal activity against Stellaria media” value in the test with Stellaria media is listed as “very good herbicidal activity”. Also, in the test with Papaver rhoeas, the “herbicidal activity against Papaver rhoeas” value is “very good herbicidal activity”. Besides, in the test with Viola tricolor, the “herbicidal activity against Viola tricolor” value is “very good herbicidal activity”. The “herbicidal activity against Matricaria inodora” value in the test with Matricaria inodora was “very good herbicidal activity”. In the test on Eleusine indica, the “ELEIN” value was 80. In addition, the “AMBEL” value in the test with Ambrosia elatior is listed as 80.
On to “2-hydroxy-N,N,N-trimethylethanaminium {[3-(5,6-dihydro-1,4,2-dioxazin-3-yl)pyridin-2-yl]sulfonyl}[(4,6-dimethoxypyrimidin-2-yl)carbamoyl]azanide [Compound I-38]”, for which the “herbicidal activity against Stellaria media” value with Stellaria media is “very good herbicidal activity”. The “herbicidal activity against Papaver rhoeas” value in the test on Papaver rhoeas is given as “very good herbicidal activity”. For the same compound, the “herbicidal activity against Viola tricolor” value with Viola tricolor is given as “very good herbicidal activity”. Moreover, the “herbicidal activity against Matricaria inodora” value with Matricaria inodora is “very good herbicidal activity”. In the test on Eleusine indica, the “ELEIN” value came to 85. Moreover, the “AMBEL” value in the test with Ambrosia elatior worked out at 80.
As to “2-Hydroxy-N-(2-hydroxyethyl)ethanaminium {[3-(5,6-dihydro-1,4,2-dioxazin-3-yl)pyridin-2-yl]sulfonyl}[(4,6-dimethoxypyrimidin-2-yl)carbamoyl]azanide [Compound I-35]”, the “herbicidal activity against Stellaria media” value with Stellaria media is “very good herbicidal activity”. For the same compound, the “herbicidal activity against Papaver rhoeas” value in the test on Papaver rhoeas is “very good herbicidal activity”. In addition, the “herbicidal activity against Viola tricolor” value with Viola tricolor is reported as “very good herbicidal activity”. Moreover, in the test with Matricaria inodora, the “herbicidal activity against Matricaria inodora” value is “very good herbicidal activity”. Further, in the test with Eleusine indica, the “ELEIN” value was found to be 80. For the same compound, the “AMBEL” value with Ambrosia elatior was 85.
Turning to `COc1cc(OC)nc(NC(=O)NS(=O)(=O)c2ncccc2C2=NOCCO2)n1.[Na]` [control, Na^+ salt of 3-(5,6-dihydro-1,4,2-dioxazin-3-yl)-N-[(4,6-dimethoxypyrimidin-2-yl)carbamoyl]pyridine-2-sulfonamide, reference compound], the “ELEIN” value with Eleusine indica was found to be 75. For the same compound, the “controlling action against the monocotyledonous weed Eleusine indica (in words)” value with Eleusine indica (post-emergence) is given as “good controlling action”. Besides, the “AMBEL” value in the test with Ambrosia elatior was determined as 20. Besides, the “effectiveness against the dicotyledonous weed Ambrosia elatior (in words)” value in the test on Ambrosia elatior (post-emergence) is recorded as “controlled relatively weakly”.
